# Assay results reported in patent US6051582A, “Compounds useful for inhibition of farnesyl protein transferase” (Schering Corporation, priority 1998, dated 2000).
# Columns and labels:
# COS Cell = assay: COS Cell-Based Assay
# Experimental: (§1) FPT IC50 (inhibition of farnesyl protein transferase, in vitro enzyme assay) and COS Cell IC50 (Cell-Based Assay) were determined following the assay procedures described in WO 95/10516, published Apr. 20, 1995. GGPT IC50 (inhibition of geranylgeranyl protein transferase, in vitro enzyme assay), Cell Mat Assay, and anti-tumor activity (in vivo anti-tumor studies) could be determined by the assay procedures described in WO 95/10516. The disclosure of WO 95/10516 is incorporated herein by reference thereto.
# [1] = biological target: farnesyl protein transferase (Homo sapiens, UniProt P49354+P49356); assay: FPT inhibition, in vitro enzyme assay; type: biochemical
# Chain of farnesyl protein transferase (P49356 whole entry, one chain of several): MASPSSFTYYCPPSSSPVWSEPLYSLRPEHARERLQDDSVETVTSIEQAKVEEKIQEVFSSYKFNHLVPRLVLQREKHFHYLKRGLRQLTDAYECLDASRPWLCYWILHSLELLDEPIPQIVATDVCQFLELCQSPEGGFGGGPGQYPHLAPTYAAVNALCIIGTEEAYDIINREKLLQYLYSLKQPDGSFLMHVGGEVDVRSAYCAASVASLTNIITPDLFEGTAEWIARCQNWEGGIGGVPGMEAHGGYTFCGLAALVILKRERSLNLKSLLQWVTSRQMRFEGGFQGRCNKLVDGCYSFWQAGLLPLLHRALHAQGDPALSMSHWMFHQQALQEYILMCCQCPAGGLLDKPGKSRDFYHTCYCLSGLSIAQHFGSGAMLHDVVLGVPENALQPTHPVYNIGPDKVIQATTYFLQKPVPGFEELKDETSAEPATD
# Experimental: as §1
smiles,measurement,setting,value
CC1(CC(=O)N2CCC([C@H]3c4ncc(Br)cc4CCc4cc(Cl)cc(Br)c43)CC2)CCN(S(C)(=O)=O)CC1 [Example 1],IC50,COS Cell,22 nM
same,IC50,[1],19 nM
